Results as given in patent US20260022142A1, “MACROCYCLIC IMMUNOMODULATORS” (Bristol-Myers Squibb Company, priority 2022, published 2026).
Numbered stars: 1 amine (or outer) side, 2 acyl side, 3 side chain; on linkers, the order of the positions; unused ones are H or OH. Bridge positions count the residues as written; N and C are the ends. Square brackets hold non-standard residues; d marks the D form. Peptide text beside a SMILES is read from it. * marks the point of attachment. ξ: configuration not given here. Phe(4-COOH) = N[C@@H](Cc1ccc(C(=O)O)cc1)C(=O)O; X7 = N=C(NCCC[C@H](N[*:1])C(=O)[*:2])C1CC1; Bip = N[C@@H](Cc1ccc(-c2ccccc2)cc1)C(=O)O; Phe(3-Me) = Cc1cccc(C[C@H](N)C(=O)O)c1; NH(CH2)12COOH = O=C(O)CCCCCCCCCCCCN*; Val(3-OH) = CC(C)(O)[C@H](N)C(=O)O; hArg = N=C(N)NCCCC[C@H](N)C(=O)O; 4Pal = N[C@@H](Cc1ccncc1)C(=O)O; Cha = N[C@@H](CC1CCCCC1)C(=O)O; Cit = NC(=O)NCCC[C@H](N)C(=O)O; Ile(3ξ) = CCC(C)[C@H](N)C(=O)O; aThr = C[C@H](O)[C@H](N)C(=O)O; Thr(3ξ) = CC(O)[C@H](N)C(=O)O; 12Ado = NCCCCCCCCCCCC(=O)O; Carboxymethyl = O=C(O)C*; Orn = NCCC[C@H](N)C(=O)O; Pra = C#CC[C@H](N)C(=O)O; Aun = NCCCCCCCCCCC(=O)O; Dab = NCC[C@H](N)C(=O)O; Dap = NC[C@H](N)C(=O)O; AEEA = NCCOCCOCC(=O)O

Target: T1, PD-1/PD-L1 interaction (PE-labeled human PD-L1-Ig binding to Jurkat cell line over-expressing human PD-1) (Homo sapiens, UniProt Q15116)
T1 construct: expressed in transfected cells; host or cells: Jurkat
T1 sequence (Q15116 25-288): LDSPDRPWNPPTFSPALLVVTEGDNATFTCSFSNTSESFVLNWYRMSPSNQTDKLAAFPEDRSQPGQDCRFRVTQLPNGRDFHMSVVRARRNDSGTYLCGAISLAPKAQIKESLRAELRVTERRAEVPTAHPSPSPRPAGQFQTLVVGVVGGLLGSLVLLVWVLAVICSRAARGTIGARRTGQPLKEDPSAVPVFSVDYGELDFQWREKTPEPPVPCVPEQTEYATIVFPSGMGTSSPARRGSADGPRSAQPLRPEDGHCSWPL
Assay: Jurkat-PD-1 Cell Binding High-Content Screening Assay (CBA)
Type: cell-based
Conditions: Jurkat cell line over-expressing human PD-1; PE-labeled PD-L1-Ig 20 nM final; read-out: Jurkat hPD1-PDL1 IC50
Summary of the method: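 First, compound is added to PD-1-expressing Jurkat cells in serum-containing DMEM and left 2 h at 37° C. Next, PE-conjugated PD-L1-Ig is introduced at 20 nM final concentration for 1 hour. Finally, cells are fixed in 4% paraformaldehyde with Hoechst 33342, washed and imaged.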

IC50	Structure (SMILES)
121 nM	CC(C)C[C@H]1NC(=O)[C@H](CCCN)NC(=O)[C@H](Cc2ccc(O)cc2)NC(=O)[C@H](Cc2ccc(-c3ccccc3)cc2)NC(=O)[C@H](Cc2ccc(O)cc2)NC(=O)[C@H](Cc2c[nH]c3ccccc23)NC(=O)[C@H](CC(=O)O)NC(=O)[C@H](Cc2ccc(OCC(=O)O)cc2)NC(=O)[C@H](CN)NC(=O)CSC[C@@H](C(=O)N[C@@H](CCN)C(=O)NCCCCCCCCCCC(=O)O)NC(=O)[C@H](CCCCN)NC(=O)[C@H](C(C)O)NC(=O)[C@H](CC2CCCCC2)NC(=O)[C@H](CCN)NC1=O (stereo partly drawn) [Compound 3657] ({CH2CO}-[Dap]Y(Carboxymethyl)DWY[Bip]Y[Orn][dL][Dab][Cha][Thr(3ξ)]KC[Dab][Aun]-OH; thioether N-14)
21.5 nM	Cc1cccc(C[C@@H]2NC(=O)[C@H](CC(=O)O)NC(=O)[C@H](Cc3ccc(OCC(=O)O)cc3)NC(=O)[C@H](CCCCNC(=N)N)NC(=O)CSC[C@@H](C(=O)N[C@@H](CCCN)C(=O)N[C@@H](CO)C(=O)NCCCCCCCCCCCC(=O)O)NC(=O)[C@H](CO)NC(=O)[C@H](C(C)C)NC(=O)[C@H](CC3CCCCC3)NC(=O)[C@H](CCN)NC(=O)[C@@H](CC(C)C)NC(=O)[C@H](CCCNC(=N)N)NC(=O)[C@H](CCCNC(=N)C3CC3)NC(=O)[C@H](Cc3ccc(-c4ccccc4)cc3)NC(=O)[C@H](C(C)C)NC2=O)c1 [Compound 3578] ({CH2CO}-[hArg]Y(Carboxymethyl)D[Phe(3-Me)]V[Bip][X7]R[dL][Dab][Cha]VSC[Orn]S[12Ado]-OH; thioether N-14)
78.3 nM	CC(C)C[C@H]1NC(=O)[C@H](CCCN)NC(=O)[C@H](Cc2ccc(O)cc2)NC(=O)[C@H](Cc2ccc(-c3ccccc3)cc2)NC(=O)[C@H](C(C)C)NC(=O)[C@H](Cc2c[nH]c3ccccc23)NC(=O)[C@H](CC(=O)O)NC(=O)[C@H](Cc2ccc(OCC(=O)O)cc2)NC(=O)[C@H](C(C)O)NC(=O)CSC[C@@H](C(=O)N[C@@H](CCN)C(=O)NCCCCCCCCCCC(=O)O)NC(=O)[C@H](CCCCN)NC(=O)[C@H](C(C)O)NC(=O)[C@H](CC2CCCCC2)NC(=O)[C@H](CCN)NC1=O (stereo partly drawn) [Compound 3668] ({CH2CO}-[Thr(3ξ)]Y(Carboxymethyl)DWV[Bip]Y[Orn][dL][Dab][Cha][Thr(3ξ)]KC[Dab][Aun]-OH; thioether N-14)
39.2 nM	Cc1cccc(C[C@@H]2NC(=O)[C@H](CC(=O)O)NC(=O)[C@H](Cc3ccc(OCC(=O)O)cc3)NC(=O)[C@H](CCN)NC(=O)CSC[C@@H](C(=O)N[C@@H](CCN)C(=O)NCCOCCOCC(=O)NCCOCCOCC(=O)NCCCCCCCCCCCCC(=O)O)NC(=O)[C@H](CCC(=O)O)NC(=O)[C@H](C(C)(C)O)NC(=O)[C@H](CC3CCCCC3)NC(=O)[C@H](CCN)NC(=O)[C@@H](CC(C)C)NC(=O)[C@H](CCCN)NC(=O)[C@H](Cc3ccc(C(=O)O)cc3)NC(=O)[C@H](Cc3ccc(-c4ccccc4)cc3)NC(=O)[C@H](Cc3ccc(C(=O)O)cc3)NC2=O)c1 [Compound 3759] ({CH2CO}-[Dab]Y(Carboxymethyl)D[Phe(3-Me)][Phe(4-COOH)][Bip][Phe(4-COOH)][Orn][dL][Dab][Cha][Val(3-OH)]EC[Dab][AEEA][AEEA]-{NH(CH2)12COOH}; thioether N-14)

More lines, now with the values behind:

Structure (SMILES)	IC50
Cc1cccc(C[C@@H]2NC(=O)[C@H](CC(=O)O)NC(=O)[C@H](Cc3ccc(OCC(=O)O)cc3)NC(=O)[C@H](C(C)O)NC(=O)CSC[C@@H](C(=O)N[C@H](CC(N)=O)C(=O)NCCCCCCCCCCC(=O)O)NC(=O)[C@H](C(C)O)NC(=O)[C@H](C(C)C)NC(=O)[C@H](CC3CCCCC3)NC(=O)[C@H](CCN)NC(=O)[C@@H](CC(C)C)NC(=O)[C@H](CCCN)NC(=O)[C@H](Cc3ccc(OCC(=O)O)cc3)NC(=O)[C@H](Cc3ccc(-c4ccccc4)cc3)NC(=O)[C@H](C(C)C)NC2=O)c1 (stereo partly drawn) [Compound 3493] ({CH2CO}-[Thr(3ξ)]Y(Carboxymethyl)D[Phe(3-Me)]V[Bip]Y(Carboxymethyl)[Orn][dL][Dab][Cha]V[Thr(3ξ)]C[dN][Aun]-OH; thioether N-14)	9.8 nM
CC(C)C[C@H]1NC(=O)[C@H](CCCN)NC(=O)[C@H](C(C)C)NC(=O)[C@H](Cc2ccc(-c3ccccc3)cc2)NC(=O)[C@H](C(C)C)NC(=O)[C@H](Cc2c[nH]c3ccccc23)NC(=O)[C@H](CC(=O)O)NC(=O)[C@H](Cc2ccc(OCC(=O)O)cc2)NC(=O)[C@H](CCCCNC(=N)N)NC(=O)CSC[C@@H](C(=O)N[C@@H](CC(N)=O)C(=O)NCCOCCOCC(=O)N[C@@H](CCCN)C(=O)NCCCCCCCCCCC(=O)O)NC(=O)[C@H](C(C)O)NC(=O)[C@H](C(C)C)NC(=O)[C@H](CC2CCCCC2)NC(=O)[C@H](CCN)NC1=O (stereo partly drawn) [Compound 3030] ({CH2CO}-[hArg]Y(Carboxymethyl)DWV[Bip]V[Orn][dL][Dab][Cha]V[Thr(3ξ)]CN[AEEA][Orn][Aun]-OH; thioether N-14)	12.1 nM
CC(C)C[C@H]1NC(=O)[C@H](CCCN)NC(=O)[C@H](C(C)C)NC(=O)[C@H](Cc2ccc(-c3ccccc3)cc2)NC(=O)[C@H](C(C)C)NC(=O)[C@H](Cc2c[nH]c3ccccc23)NC(=O)[C@H](CC(=O)O)NC(=O)[C@H](Cc2ccc(C(=O)O)cc2)NC(=O)[C@H](CCCNC(=N)N)NC(=O)CSC[C@@H](C(=O)NCC(=O)NCCOCCOCC(=O)N[C@@H](CCCN)C(=O)NCCCCCCCCCCC(=O)O)NC(=O)[C@H](CO)NC(=O)[C@H](C(C)C)NC(=O)[C@H](CC2CCCCC2)NC(=O)[C@H](CCN)NC1=O [Compound 3231] ({CH2CO}-R[Phe(4-COOH)]DWV[Bip]V[Orn][dL][Dab][Cha]VSCG[AEEA][Orn][Aun]-OH; thioether N-14)	7.7 nM
Cc1cccc(C[C@@H]2NC(=O)[C@H](CC(=O)O)NC(=O)[C@H](Cc3ccc(C(=O)O)cc3)NC(=O)[C@H](CCN)NC(=O)CSC[C@@H](C(=O)N[C@@H](CCN)C(=O)NCCOCCOCC(=O)NCCOCCOCC(=O)NCCCCCCCCCCCCC(=O)O)NC(=O)[C@H](CO)NC(=O)[C@H](C(C)(C)O)NC(=O)[C@H](CC3CCCCC3)NC(=O)[C@H](Cc3c[nH]cn3)NC(=O)[C@@H](CC(C)C)NC(=O)[C@H](CCCN)NC(=O)[C@H](Cc3ccc(C(=O)O)cc3)NC(=O)[C@H](Cc3ccc(-c4ccccc4)cc3)NC(=O)[C@H](Cc3ccc(C(=O)O)cc3)NC2=O)c1 [Compound 2890] ({CH2CO}-[Dab][Phe(4-COOH)]D[Phe(3-Me)][Phe(4-COOH)][Bip][Phe(4-COOH)][Orn][dL]H[Cha][Val(3-OH)]SC[Dab][AEEA][AEEA]-{NH(CH2)12COOH}; thioether N-14)	31.1 nM
Cc1cccc(C[C@@H]2NC(=O)[C@H](CC(=O)O)NC(=O)[C@H](Cc3ccc(OCC(=O)O)cc3)NC(=O)[C@H](CN)NC(=O)CSC[C@@H](C(=O)N[C@@H](C)C(=O)N[C@@H](CCC(=O)O)C(=O)NCCOCCOCC(=O)NCCCCCCCCCCC(=O)O)NC(=O)[C@H]([C@@H](C)O)NC(=O)[C@H](C(C)C)NC(=O)[C@H](CC3CCCCC3)NC(=O)[C@H](CCN)NC(=O)[C@@H](CC(C)C)NC(=O)[C@H](CCCN)NC(=O)[C@H](CCCNC(N)=O)NC(=O)[C@H](Cc3ccc(-c4ccccc4)cc3)NC(=O)[C@H](C(C)C)NC2=O)c1 [Compound 1004] ({CH2CO}-[Dap]Y(Carboxymethyl)D[Phe(3-Me)]V[Bip][Cit][Orn][dL][Dab][Cha]VTCAE[AEEA][Aun]-OH; thioether N-14)	2.6 nM
CCC(C)[C@@H]1NC(=O)[C@H](Cc2ccc(-c3ccccc3)cc2)NC(=O)[C@H](CC(C)C)NC(=O)[C@H](Cc2c[nH]c3ccccc23)NC(=O)[C@H](CC(=O)O)NC(=O)[C@H](Cc2ccc(OCC(=O)O)cc2)NC(=O)[C@H]([C@H](C)O)NC(=O)CSC[C@@H](C(=O)NCCOCCOCC(=O)N[C@@H](CCCCN)C(=O)NCCCCCCCCCCC(=O)O)NC(=O)[C@H](CO)NC(=O)[C@H](C(C)C)NC(=O)[C@H](CC(C)C)NC(=O)[C@H](CCN)NC(=O)[C@@H](CC(C)C)NC(=O)[C@H](CCCN)NC1=O (stereo partly drawn) [Compound 3081] ({CH2CO}-[aThr]Y(Carboxymethyl)DWL[Bip][Ile(3ξ)][Orn][dL][Dab]LVSC[AEEA]K[Aun]-OH; thioether N-14)	20.7 nM
Cc1cccc(C[C@@H]2NC(=O)[C@H](CC(=O)O)NC(=O)[C@H](Cc3ccc(OCC(=O)O)cc3)NC(=O)[C@H](CN)NC(=O)CSC[C@@H](C(=O)N[C@@H](CCN)C(=O)NCCCCCCCCCCC(=O)O)NC(=O)[C@@H](CCC(N)=O)NC(=O)[C@H](C(C)C)NC(=O)[C@H](CC3CCCCC3)NC(=O)[C@H](CCN)NC(=O)[C@@H](CC(C)C)NC(=O)[C@H](CCCN)NC(=O)[C@H](Cc3ccc(O)cc3)NC(=O)[C@H](Cc3ccc(-c4ccccc4)cc3)NC(=O)[C@H](C(C)C)NC2=O)c1 [Compound 2721] ({CH2CO}-[Dap]Y(Carboxymethyl)D[Phe(3-Me)]V[Bip]Y[Orn][dL][Dab][Cha]V[dQ]C[Dab][Aun]-OH; thioether N-14)	22.4 nM
C#CC[C@H](NC(=O)COCCOCCNC(=O)[C@H](CCCN)NC(=O)[C@@H]1CSCC(=O)N[C@@H](Cc2ccncc2)C(=O)N[C@@H](Cc2ccc(OCC(=O)O)cc2)C(=O)N[C@@H](CC(=O)O)C(=O)N[C@@H](Cc2c[nH]c3ccccc23)C(=O)N[C@@H](C(C)C)C(=O)N[C@@H](Cc2ccc(-c3ccccc3)cc2)C(=O)N[C@@H]([C@@H](C)CC)C(=O)N[C@@H](CCCN)C(=O)N[C@H](CC(C)C)C(=O)N[C@@H](CCN)C(=O)N[C@@H](CC(C)C)C(=O)N[C@@H](C(C)C)C(=O)N[C@@H]([C@@H](C)O)C(=O)N1)C(=O)N[C@@H](CCCN)C(=O)NCCCCCCCCCCC(=O)O [Compound 1201] ({CH2CO}-[4Pal]Y(Carboxymethyl)DWV[Bip]I[Orn][dL][Dab]LVTC[Orn][AEEA][Pra][Orn][Aun]-OH; thioether N-14)	7.6 nM
